Literature values, collected in patent US20190090531A1, “TOBACCO FILLING FOR NON-COMBUSTION-TYPE HEATING SMOKING ARTICLE” (JAPAN TOBACCO INC., priority 2016, published 2019).
Like-named read-outs stand apart in the source and are kept apart here.

[1] = Table 1, in water at normal temperature (25° C.)

| SMILES | Acid dissociation constant pKa1 [1] | Acid dissociation constant pKa1 (Table 2, in water at 25° C.) |
| --- | --- | --- |
| CC(=O)C(=O)O [Pyruvic acid] | 2.50 | – |
| CCCCCCCCCCCCCCCC(=O)O [Palmitic acid] | ≈5.00 | – |
| CC(=O)CCC(=O)O [Levulinic acid] | 4.44 | – |
| CCCCCCCCCCCC(=O)O [Lauric acid] | 5.20 | – |
| CCCCCCCCCCCCCCCCCCC(=O)O [Nonadecanoic acid] | ≈5.00 | ≈5.00 |
| O=C1O[C@H]([C@H](O)CO)C(O)=C1O [Isoascorbic acid] | 4.13 | 4.13 |
| CCCCCCCCCC(=O)O [Decanoic acid] | 4.90 | – |
| CCCCCCCCCCCCCCCCCC(=O)O [Stearic acid] | ≈5.00 | – |
| CCCCCCCCCCCCCC(=O)O [Myristic acid] | ≈5.00 | – |
| C/C=C/C=C/C(=O)O [Sorbic acid] | 4.76 | – |
| CCCCCCCCCCCCCCCCCCCCCCCC(=O)O [Lignoceric acid] | ≈5.00 | ≈5.00 |
| CCCCCCCCCCCCCCCCCCCCCCCCCCCC(=O)O [Octacosanoic acid] | ≈5.00 | – |
| CCCCCCCCCCCCCCCCCCCCC(=O)O [Heneicosanoic acid] | ≈5.00 | – |
| CC/C=C\C/C=C\C/C=C\CCCCCCCC(=O)O [Linolenic acid] | ≈5.00 | – |
